Reference: patent US9242984B2, “Pyrazolyl derivatives as Syk inhibitors” (Merck Sharp & Dohme Corp., priority 2012, dated 2016)
pIC50: −log10 of the molar value.

The compounds below were run against T1, recombinant human Syk (GST-hSyk fusion protein) (Homo sapiens, UniProt P43405) (assay: Homogeneous Time-Resolved Fluorescence (HTRF) assay for the recombinant human Syk enzyme). Conditions: IC50 class; 10-dose titration, 25 μM ATP; read-out: rhSYK Activity.
T1 construct: purchased Carna Biosciences 08-176
Type: biochemical
Outline: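 GST-hSyk (5 pM) preincubated 10 min with compound (0.1% DMSO) in 15 mM Tris-HCl pH 7.5, 2 mM DTT; reaction started with 250 nM biotinylated peptide, 5 mM Mg, 25 μM ATP, 45 min, room temperature. EDTA quench, Eu-anti-phosphotyrosine/SA-APC HTRF read after 30 min; IC50 from 10-dose titration (10 μM–0.508 nM), four-parameter fit.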

| pIC50 | Compound |
| --- | --- |
| ≥ 7.00 | Cc1cc(Nc2nccc(C(F)(F)F)n2)cc(-c2cnn(C3CCC(C(N)=O)C(C)(C)C3)c2)c1 (stereo not shown) [Example 8.19, 2,2-dimethyl-4-[4-(3-methyl-5-{[4-(trifluorometh-yl)pyrimidin-2-yl]amino}phenyl)-1H-pyrazol-1-yl]-cyclohexanecarbox-amide] |
| 6.00 to 7.00 | CCOC(=O)CCc1cnn(-c2cc(C)cc(Nc3nccc(C)n3)c2)c1 [Example 19.6, Ethyl 3-(1-{3-methyl-5-[(4-methyl-pyrimidin-2-yl)amino]-phenyl}-1H-pyrazol-4-yl)propanoate] |
| 6.00 to 7.00 | Cc1cc(Nc2nccc(C(F)(F)F)n2)cc(-c2ccnn2C)c1 [Example 1.9, N-[3-methyl-5-(1-methyl-1H-pyrazol-5-yl)phenyl]-4-(trifluoromethyl)pyrimidin-2-amine] |
| 6.00 to 7.00 | CCOC(Cn1cc(-c2cc(C)cc(Nc3nccc(C(F)(F)F)n3)c2)cn1)OCC [Example 3.23, N-{3-[1-(2,2-diethoxyethyl)-1H-pyrazol-4-yl]-5-methylphenyl}-4-(trifluoromethyl)pyrimidin-2-amine] |
